Tested on: HER2
Assay: HER2 inhibition assay (Her-2 degradation by flow cytometry in MCF-7 cells, as manifestation of HSP90 inhibition)
Assay type: cell-based
Conditions: HER2 degradation, commercially acquired compounds (Sigma Aldrich), Table I, read-out: HER2 IC50
Method: MCF-7 cells are seeded in 24 well plates at a density of approximately 30,000 cells/well and allowed to grow for 16 hours in DMEM supplemented with 10% FBS. Drug (a compound as specified in Table I) is then added at a concentration range of 100 μM to 0.01 uM. Cells are incubated for an additional […]. Drug treated cells and untreated control cells are trypsinized, and incubated at room temperature for 15 minutes with anti Her-2 neu Ab conjugated with phycoerythrin (Becton Dickinson, San Jose Calif.; Cat no. 340552) at a concentration of 0.25 ug/ml, or non-specific control IgGl conjugated with phycoerytirin (Becton Dickinson, San Jose Calif.; Cat no. 340761). Samples were analyzed using a FACS Calibur flow cytometer (Becton Dickinson) equipped with Argon-ion laser that which emits 15 mW of 488 nm light for excitation of the phycoerythrin fluorochrome. 10,000 events were collected per sample. A fluorescence histogram was generated and the mean fluorescence intensity (mfi) of each sample was determined using Cellquest software. The background was defined as the mfi generated from cells incubated with control IgG, and was subtracted from each sample stained with the HER-2/neu Ab. Percent degradation of Her-2 was calculated as follows: % Her-2 degradation=(mfi HER-2 sample)/(mfi HER-2 untreated cells)×100
Compounds of the following formula (constituents as described in Table I) were acquired from Sigma Aldrich (Milwaukee, Wis.) and evaluated for HSP90 inhibition as manifested by HER2 degradation.
The following compounds were synthesized and evaluated for Her 2 degradation, with the results reflected in Table 3.

| Structure (SMILES) | IC50 [µM] |
| --- | --- |
| C[C@H]1CCCC(=O)CCC/C=C/c2cc(O)cc(O)c2C(=O)O1 [2 (zearalenone), zearalenone, reference compound] | 7 |
| C[C@H]1CCC[C@@H](O)CCC/C=C/c2cc(O)cc(O)c2C(=O)O1 [6 (β-zearalenol), β-zearalenol, reference compound] | 1 |
| C[C@H]1CCCC(=O)CCCCCc2cc(O)cc(O)c2C(=O)O1 [1 (zearalanone), zearalanone, reference compound] | 13 |
| C[C@H]1CCC[C@H](O)CCCCCc2cc(O)cc(O)c2C(=O)O1 [3 (α-zearalanol), α-zearalanol, reference compound] | 30 |
| C[C@H]1CCC[C@H](O)CCC/C=C/c2cc(O)cc(O)c2C(=O)O1 [5 (α-zearalenol), α-zearalenol, reference compound] | 40 |
| C[C@H]1CCC[C@@H](O)CCCCCc2cc(O)cc(O)c2C(=O)O1 [4 (β-zearalanol), β-zearalanol, reference compound] | 4 |

Same assay, conditions: synthesized compounds, Table 3, read-out: IC50 (Her 2 degradation)

| Structure (SMILES) | IC50 [µM] |
| --- | --- |
| COc1cc(O)c2c(c1)/C=C/CCCC(=O)CCC(C)OC2=O (stereo not shown) [Example 7, 4-hydroxy-2-methoxy-7-methyl-8,9,12,13-tetrahydro-7H,11H-6-oxa-benzocyclotridecene-5,10-dione] | 60 |
| COc1cc2c(c(OC)c1)C(=O)OC(C)CCC(=O)CCC/C=C/2 (stereo not shown) [Example 6, 2,4-dimethoxy-7-methyl-8,9,12,13-tetrahydro-7H,11H-6-oxa-benzocyclotridecene-5,10-dione] | 90 |
| COc1cc2c(c(OC(C)=O)c1)C(=O)OCCC/C=C\CCCO2 [Example 5.1, (9Z)-1-acetoxy-3-methoxy-6,7,8,11,12,13-hexahydro-5,14-dioxa-benzocyclotridecen-15-one] | 13 |
| COc1cc2c(c(OC(C)=O)c1)C(=O)OCCC/C=C/CCCO2 [Example 5.2, (9E)-1-acetoxy-3-methoxy-6,7,8,11,12,13-hexahydro-5,14-dioxa-benzocyclotridecen-15-one] | 15 |
| COc1cc(O)c2c(c1)OCCCCCC(=O)CCCCOC2=O [Example 3.2, 1-Hydroxy-3-methoxy-6,7,8,9,12,13,14,15-octahydro-11H-5,16-dioxa-benzocyclopentadecene-11,17-dione] | 16 |
| COc1cc(O)c2c(c1)OCCCC(O)C(O)CCCOC2=O (stereo not shown) [Example 4, 1,9,10-Trihydroxy-3-methoxy-6,7,8,9,10,11,12,13-octahydro-5,14-dioxa-benzocyclotridecen-15-one] | 12 |
| COc1cc2c(c(OC(C)=O)c1)C(=O)OCCCCC=CCCCCO2 [Example 2.1, 1-acetoxy-3-methoxy-6,7,8,9,12,13,14,15-octahydro-5,16-dioxa-benzocyclopentadecen-17-one] | 10 |
| COc1cc(O)c2c(c1)OCCCCC(=O)CCCCCOC2=O [Example 3.1, 1-hydroxy-3-methoxy-6,7,8,9,12,13,14,15-octahydro-11H-5,16-dioxa-benzocyclopentadecene-10,17-dione] | 30 |
| COc1cc(OC(C)=O)c2c(c1C(C)=O)OCCCCC=CCCCCOC2=O [Example 2.2, 1-acetoxy-3-methoxy-4-acetyl-6,7,8,9,12,13,14,15-octahydro-5,16-dioxa-benzocyclopentadecen-17-one] | 40 |
| COc1cc(O)c2c(c1)OCCCCC(O)C(O)CCCCOC2=O (stereo not shown) [Example 1] | 30 |

Source: patent US7553979B2, “HSP90-inhibiting zearalanol compounds and methods of producing and using same” (Conforma Therapeutics Corporation, priority 2001, dated 2009)
